# Source: patent publication US12534452B2, “N-(1H-imidazol-2-yl)benzamide compound and pharmaceutical composition comprising the same as active ingredient” (KAINOS MEDICINE, INC., priority 2019, dated 2026)
# Target: IRAK4 (Homo sapiens (Human), UniProt Q9NWZ3)
# Experiment: In vitro IRAK4 phosphorylation activity assay
# Type: biochemical
# Settings: [γ-33P]-ATP, myelin basic protein substrate, 40 minutes at room temperature; categories
# Outline: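 Radiometric filter-binding assay, no compound–kinase preincubation; 8 mM MOPS pH 7.0, 0.2 mM EDTA, 10 mM Mg acetate, 0.33 mg/mL myelin basic protein substrate, [γ-33P]-ATP. Reaction 40 min at room temperature, stopped with phosphoric acid, scintillation counting; IC50 reported in categories.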
# Sequence of IRAK4 (Q9NWZ3 whole entry): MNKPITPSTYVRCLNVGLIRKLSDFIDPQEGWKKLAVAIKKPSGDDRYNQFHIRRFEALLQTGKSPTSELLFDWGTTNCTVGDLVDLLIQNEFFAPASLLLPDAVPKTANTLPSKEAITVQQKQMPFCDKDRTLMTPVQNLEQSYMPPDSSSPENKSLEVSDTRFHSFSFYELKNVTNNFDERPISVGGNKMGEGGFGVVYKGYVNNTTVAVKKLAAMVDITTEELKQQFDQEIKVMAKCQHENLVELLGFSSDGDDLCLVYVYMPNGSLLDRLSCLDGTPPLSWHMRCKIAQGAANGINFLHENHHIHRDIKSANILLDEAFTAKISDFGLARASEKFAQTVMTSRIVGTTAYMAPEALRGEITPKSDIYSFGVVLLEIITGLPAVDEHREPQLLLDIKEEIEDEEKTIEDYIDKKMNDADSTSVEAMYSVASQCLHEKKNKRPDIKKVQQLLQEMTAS
row,IC50,SMILES
1,< 50 nM,"O=C(CCCCCc1cn(-c2ccccc2)c(NC(=O)c2cccc(-c3ccc4ncsc4c3)c2)n1)NC1CC1 [Example 286, 3-(benzo[d]thiazol-6-yl)-N-(4-(6-(cyclopropylamino)-6-oxohexyl)-1-phenyl-1H-imidazol-2-yl)benzamide]"
2,< 50 nM,"O=C(Nc1nc(CCC(=O)N2CCCCC2)cn1-c1ccccc1)c1cccc(-c2cn[nH]c2)c1 [Example 12, N-(4-(3-oxo-3-(piperidin-1-yl)propyl)-1-phenyl-1H-imidazol-2-yl)-3-(1H-pyrazol-4-yl)benzamide]"
3,< 50 nM,"Nc1ccc(-c2cccc(C(=O)Nc3nc(CCCCCC(=O)N4CCCCC4)cn3-c3ccccc3)c2)cn1 [Example 271, 3-(6-aminopyridin-3-yl)-N-(4-(6-oxo-6-(piperidin-1-yl)hexyl)-1-phenyl-1H-imidazol-2-yl)benzamide]"
4,< 50 nM,"O=C(Nc1nc(CCCCCC(=O)N2CCCCC2)cn1-c1ccccc1)c1cccc(-c2cn[nH]c2)c1 [Example 93, N-(4-(6-oxo-6-(piperidin-1-yl)hexyl)-1-phenyl-1H-imidazol-2-yl)-3-(1H-pyrazol-4-yl)benzamide]"
5,> 100 nM,"CNC(=O)Cc1cn(-c2ccccc2)c(NC(=O)c2cccnc2)n1 [Example 51, N-(4-(2-(methylamino)-2-oxoethyl)-1-phenyl-1H-imidazol-2-yl)nicotinamide]"
6,< 50 nM,"Cn1cc(-c2cccc(C(=O)Nc3nc(CCCC(=O)N4CCC(N)CC4)cn3-c3ccccc3)c2)cn1 [Example 209, N-(4-(4-(4-aminopiperidin-1-yl)-4-oxobutyl)-1-phenyl-1H-imidazol-2-yl)-3-(1-methyl-1H-pyrazol-4-yl)benzamide]"
7,50 to 100 nM,"CN(C(=O)CCCc1cn(-c2ccccc2)c(NC(=O)c2cccc(-c3cnn(C)c3F)c2)n1)C1CC1 [Example 233, N-(4-(4-(cyclopropyl(methyl)amino)-4-oxobutyl)-1-phenyl-1H-imidazol-2-yl)-3-(5-fluoro-1-methyl-1H-pyrazol-4-yl)benzamide]"
8,< 50 nM,"C[C@@H]1CCC[C@H](C)N1C(=O)CCCCc1cn(-c2ccccc2)c(NC(=O)c2cccc(-c3cn[nH]c3)c2)n1 [Example 81, N-(4-(5-((2R,6S)-2,6-dimethylpiperidin-1-yl)-5-oxopentyl)-1-phenyl-1H-imidazol-2-yl)-3-(1H-pyrazol-4-yl)benzamide]"
9,< 50 nM,"O=C(Nc1nc(CCCCCO)cn1-c1ccccc1)c1cccc(-c2cn[nH]c2)c1 [Example 116, N-(4-(5-hydroxypentyl)-1-phenyl-1H-imidazol-2-yl)-3-(1H-pyrazol-4-yl)benzamide]"
10,< 50 nM,"CN1CCN(CCCc2cn(-c3ccccc3)c(NC(=O)c3cccc(-c4cn[nH]c4)c3)n2)CC1 [Example 108, N-(4-(3-(4-methylpiperazin-1-yl)propyl)-1-phenyl-1H-imidazol-2-yl)-3-(1H-pyrazol-4-yl)benzamide]"
11,< 50 nM,"Cn1cc(-c2cccc(C(=O)Nc3nc(CCCCN4CCCCC4)cn3-c3ccccc3)c2)cn1 [Example 219, 3-(1-methyl-1H-pyrazol-4-yl)-N-(1-phenyl-4-(4-(piperidin-1-yl)butyl)-1H-imidazol-2-yl)benzamide]"
12,< 50 nM,"O=C(Nc1nc(CCCCO)cn1-c1ccccc1)c1cccc(-c2cn[nH]c2)c1 [Example 111, N-(4-(4-hydroxybutyl)-1-phenyl-1H-imidazol-2-yl)-3-(1H-pyrazol-4-yl)benzamide]"
13,< 50 nM,"CNC(=O)CCCc1cn(-c2ccccc2)c(NC(=O)c2cccc(-c3ccncc3)c2)n1 [Example 266, N-(4-(4-(methylamino)-4-oxobutyl)-1-phenyl-1H-imidazol-2-yl)-3-(pyridin-4-yl)benzamide]"
14,< 50 nM,"O=C(Nc1nc(CCCCCC(=O)N2CCCCC2)cn1-c1ccccc1)c1cccc(-c2ccc3[nH]ncc3c2)c1 [Example 237, 3-(1H-indazol-5-yl)-N-(4-(6-oxo-6-(piperidin-1-yl)hexyl)-1-phenyl-1H-imidazol-2-yl)benzamide]"
15,< 50 nM,"Cn1cc(-c2cccc(C(=O)Nc3nc(CCCC(=O)Nc4ccncc4)cn3-c3ccccc3)c2)cn1 [Example 150, 3-(1-methyl-1H-pyrazol-4-yl)-N-(4-(4-oxo-4-(pyridin-4-ylamino)butyl)-1-phenyl-1H-imidazol-2-yl)benzamide]"
16,< 50 nM,"CNC(=O)CCCc1cn(C2CCCCC2)c(NC(=O)c2cccc(-c3cn[nH]c3)c2)n1 [Example 296, N-(1-cyclohexyl-4-(4-(methylamino)-4-oxobutyl)-1H-imidazol-2-yl)-3-(1H-pyrazol-4-yl)benzamide]"
17,50 to 100 nM,"CN1CCN(NC(=O)CCCc2cn(-c3ccccc3)c(NC(=O)c3cccc(-c4cnn(C)c4)c3)n2)CC1 [Example 153, 3-(1-methyl-1H-pyrazol-4-yl)-N-(4-(4-((4-methylpiperazin-1-yl)amino)-4-oxobutyl)-1-phenyl-1H-imidazol-2-yl)benzamide]"
18,< 50 nM,"Cn1cc(-c2cccc(C(=O)Nc3nc(CCCC(=O)NCCO)cn3-c3ccccc3)c2)cn1 [Example 164, N-(4-(4-((2-hydroxyethyl)amino)-4-oxobutyl)-1-phenyl-1H-imidazol-2-yl)-3-(1-methyl-1H-pyrazol-4-yl)benzamide]"
19,50 to 100 nM,"CNC(=O)Cc1cn(-c2ccccc2)c(NC(=O)c2cccc(-c3ccc4[nH]ncc4c3)c2)n1 [Example 243, 3-(1H-indazol-5-yl)-N-(4-(2-(methylamino)-2-oxoethyl)-1-phenyl-1H-imidazol-2-yl)benzamide]"
20,> 100 nM,"Cn1ncc2cc(-c3cccc(C(=O)Nc4nc(CCCCCCN5CCOCC5)cn4-c4ccccc4)c3)ccc21 [Example 264, 3-(1-methyl-1H-indazol-5-yl)-N-(4-(6-morpholinohexyl)-1-phenyl-1H-imidazol-2-yl)benzamide]"
21,< 50 nM,"C[C@H]1CCCCN1C(=O)CCCc1cn(-c2ccccc2)c(NC(=O)c2cccc(-c3cn[nH]c3)c2)n1 [Example 62, (S)—N-(4-(4-(2-methylpiperidin-1-yl)-4-oxobutyl)-1-phenyl-1H-imidazol-2-yl)-3-(1H-pyrazol-4-yl)benzamide]"
22,< 50 nM,"O=C(Nc1nc(CCC(=O)N2CCCC(C(=O)O)C2)cn1-c1ccccc1)c1cccc(-c2cn[nH]c2)c1 [Example 36, (S)-1-(3-(2-(3-(1H-pyrazol-4-yl)benzamido)-1-phenyl-1H-imidazol-4-yl)propanoyl)piperidine-3-carboxylic acid]"
23,> 100 nM,"O=C(CCc1cn(-c2ccccc2)c(NC(=O)c2cccc(-c3cn[nH]c3)c2)n1)Nc1cnccn1 [Example 22, N-(4-(3-oxo-3-(pyrazin-2-ylamino)propyl)-1-phenyl-1H-imidazol-2-yl)-3-(1H-pyrazol-4-yl)benzamide]"
24,< 50 nM,"CNC(=O)CCCCc1cn(-c2ccccc2)c(NC(=O)c2cccc(-c3cn[nH]c3)c2)n1 [Example 80, N-(4-(5-(methylamino)-5-oxopentyl)-1-phenyl-1H-imidazol-2-yl)-3-(1H-pyrazol-4-yl)benzamide]"
25,50 to 100 nM,"O=C(CCc1cn(-c2ccccc2)c(NC(=O)c2cccc(-c3cn[nH]c3)c2)n1)NN1CCCCC1 [Example 8, N-(4-(3-oxo-3-(piperidin-1-ylamino)propyl)-1-phenyl-1H-imidazol-2-yl)-3-(1H-pyrazol-4-yl)benzamide]"
26,50 to 100 nM,"O=C(Nc1nc(CCCCCCNc2ccccc2)cn1-c1ccccc1)c1cccc(-c2cn[nH]c2)c1 [Example 122, N-(1-phenyl-4-(6-(phenylamino)hexyl)-1H-imidazol-2-yl)-3-(1H-pyrazol-4-yl)benzamide]"
